Source: ChEMBL document CHEMBL4387716, “Discovery of trans-3-(pyridin-3-yl)acrylamide-derived sulfamides as potent nicotinamide phosphoribosyltransferase (NAMPT) inhibitors for the potential treatment of cancer” (Bioorg Med Chem Lett, 2019)
pIC50: −log10 of the molar value.

How the values were obtained:
[1] = molecular target: Nicotinamide phosphoribosyltransferase (Homo sapiens, UniProt P43490); assay: Inhibition of recombinant NAMPT (unknown origin) using NAM and PRPP as substrates incubated for 60 mins in presence of NMNAT1 measured at 5 mins interval for 30 mins by WST1 assay
[2] = test system: K562; assay: Antiproliferative activity against human K562 cells assessed as inhibition of cell growth after 72 hrs by CCK-8 assay; format: functional, cell-based; details: K562, 72 h
[3] = test system: MCF7; assay: Antiproliferative activity against human MCF7 cells assessed as inhibition of cell growth after 72 hrs by CCK-8 assay; format: functional, cell-based; details: MCF7, 72 h
[4] = test system: DU-145; assay: Antiproliferative activity against human DU145 cells assessed as inhibition of cell growth after 72 hrs by CCK-8 assay; format: functional, cell-based; details: DU-145, 72 h
[5] = test system: HeLa; assay: Antiproliferative activity against human HeLa cells assessed as inhibition of cell growth after 72 hrs by CCK-8 assay; format: functional, cell-based
[6] = test system: NCI-H1975; assay: Antiproliferative activity against human NCI-H1975 cells harboring EGFR L858R/T790M mutation assessed as inhibition of cell growth after 72 hrs by CCK-8 assay; format: functional, cell-based; details: NCI-H1975, 72 h
[7] = test system: Huh-7; assay: Antiproliferative activity against human HuH7 cells assessed as inhibition of cell growth after 72 hrs by CCK-8 assay; format: functional, cell-based; details: Huh-7, 72 h

Sequence of Nicotinamide phosphoribosyltransferase (P43490 whole entry): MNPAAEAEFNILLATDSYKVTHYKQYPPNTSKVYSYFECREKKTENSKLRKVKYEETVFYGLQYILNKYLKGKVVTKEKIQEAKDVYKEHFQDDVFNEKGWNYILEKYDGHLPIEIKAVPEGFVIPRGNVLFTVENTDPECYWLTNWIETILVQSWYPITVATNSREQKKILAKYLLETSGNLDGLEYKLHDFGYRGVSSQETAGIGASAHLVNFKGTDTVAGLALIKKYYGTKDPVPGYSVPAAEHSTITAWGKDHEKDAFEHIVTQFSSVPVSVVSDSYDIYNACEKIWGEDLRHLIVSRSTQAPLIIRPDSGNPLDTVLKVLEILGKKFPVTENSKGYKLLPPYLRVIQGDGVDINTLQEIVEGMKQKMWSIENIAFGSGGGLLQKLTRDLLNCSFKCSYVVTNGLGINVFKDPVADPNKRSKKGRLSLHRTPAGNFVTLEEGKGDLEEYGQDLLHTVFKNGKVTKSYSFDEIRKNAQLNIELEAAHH

Compound | pIC50 [1] | pIC50 [2] | pIC50 [3] | pIC50 [4] | pIC50 [5] | pIC50 [6] | pIC50 [7]
O=C(/C=C/c1cccnc1)NCCCCCCCc1ccc(S(=O)(=O)Nc2ccccc2)cc1 | 7.78 | 7.25 | 7.42 | 6.36 | 6.65 | 6.48 | 5.91
O=C(/C=C/c1cccnc1)NCCCCCCc1ccc(S(=O)(=O)Nc2ccccc2)cc1 | 7.84 | 7.31 | 7.44 | 6.48 | 6.42 | 6.62 | 6.95
Cc1ccc(NS(=O)(=O)c2cccc(CCCCCCNC(=O)/C=C/c3cccnc3)c2)cc1 | 8.01 | 8.53 | 8.71 | 7.46 | 7.41 | 7.77 | 8.16
O=C(/C=C/c1cccnc1)NCCCCCCc1cccc(S(=O)(=O)Nc2ccc(F)c(Cl)c2)c1 | 8.01 | 8.27 | 8.20 | 6.82 | 6.41 | 7.60 | 7.40
O=C(/C=C/c1cccnc1)NCCCc1cccc(S(=O)(=O)Nc2ccccc2)c1 | 6.63 | 7.06 | 6.85 | 6.78 | 6.94 | 6.58 | 6.42
CCc1ccc(NS(=O)(=O)c2cccc(CCCCCCNC(=O)/C=C/c3cccnc3)c2)cc1 | 7.50 | 8.41 | 8.44 | 7.40 | 6.88 | 7.48 | 7.46
Cc1cccc(NS(=O)(=O)c2cccc(CCCCCCNC(=O)/C=C/c3cccnc3)c2)c1 | 7.91 | 8.32 | 8.40 | 7.38 | 7.18 | 7.39 | 7.88
O=C(/C=C/c1cccnc1)NCCCCCCc1cccc(S(=O)(=O)Nc2ccc(C(F)(F)F)cc2)c1 | 7.61 | 7.35 | 7.17 | 5.85 | 5.84 | 6.76 | 6.79
Cc1ccccc1NS(=O)(=O)c1cccc(CCCCCCNC(=O)/C=C/c2cccnc2)c1 | 8.29 | 9.34 | 9.64 to 9.65 | 8.54 | 8.63 | 8.65 | 9.28
O=C(/C=C/c1cccnc1)NCCCCCc1cccc(S(=O)(=O)Nc2ccccc2)c1 | 7.78 | 7.79 | 7.90 | 6.85 | 6.98 | 6.84 | 7.39
O=C(/C=C/c1cccnc1)NCCCCCc1ccc(S(=O)(=O)Nc2ccccc2)cc1 | 7.55 | 6.84 | 7.02 | 6.24 | 6.48 | 6.11 | 6.39
O=C(/C=C/c1cccnc1)NCCCCCCCc1cccc(S(=O)(=O)Nc2ccccc2)c1 | 7.50 | 7.21 | 7.37 | 6.37 | 6.22 | 6.50 | 6.86
O=C(/C=C/c1cccnc1)NCCCCCCc1cccc(S(=O)(=O)Nc2ccc(Oc3ccccc3)cc2)c1 | 7.88 | 8.29 | 8.42 | 7.29 | 6.58 | 7.59 | 7.49
O=C(/C=C/c1cccnc1)NCCCCCCc1cccc(S(=O)(=O)Nc2ccc(Cl)cc2)c1 | 7.97 | 8.19 | 8.23 | 7.07 | 6.77 | 7.48 | 7.62
O=C(/C=C/c1cccnc1)NCCCCCCc1cccc(S(=O)(=O)Nc2ccccc2)c1 | 7.98 | 9.06 | 9.20 | 8.17 | 7.52 | 8.20 | 8.55
CC(C)(C)c1ccc(NS(=O)(=O)c2cccc(CCCCCCNC(=O)/C=C/c3cccnc3)c2)cc1 | 8.02 | 7.61 | 7.58 | 6.55 | 5.82 | 6.80 | 6.79
O=C(/C=C/c1cccnc1)NCCCCc1ccc(S(=O)(=O)Nc2ccccc2)cc1 | 7.75 | 8.02 | 8.30 | 7.32 | 6.74 | 7.20 | 7.62
O=C(/C=C/c1cccnc1)NCCCc1ccc(S(=O)(=O)Nc2ccccc2)cc1 | 5.23 | 5.31 | 5.39 | < 5.00 | < 5.00 | < 5.00 | < 5.00
Cc1ccc(C)c(NS(=O)(=O)c2cccc(CCCCCCNC(=O)/C=C/c3cccnc3)c2)c1 | 7.93 | 9.08 | 9.22 | 8.13 | 7.65 | 8.31 | 8.59
O=C(/C=C/c1cccnc1)NCCCCCCc1cccc(S(=O)(=O)Nc2ccc(F)cc2)c1 | 8.04 | 9.03 | 9.04 | 7.97 | 7.00 | 8.87 | 8.37
O=C(/C=C/c1cccnc1)NCCCCC1CCN(C(=O)c2ccccc2)CC1 [DAPORINAD] | – | 9.02 | 9.39 | 8.29 | 8.43 | 8.32 | 8.98
